Source: publication PMC6379104 (Clinical pharmacology and therapeutics, 2018)
Values joined by “and” are separate entries in the source; they are usually repeats but may differ in a detail not shown here. Equal values may be shown once. Read-outs that look alike come from different tables or passages of the source.

Columns and labels:
plasma HIV RNA [1] = details: three consecutive days of DSF; cited from earlier work
cell-associated HIV DNA = details: three consecutive days of DSF; cited from earlier work
[2] = Population pharmacokinetic model of plasma disulfiram and four metabolites
[3] = tested on: latent HIV in Bcl-2-transduced primary CD4+ T cells; details: cited from earlier work
plasma HIV RNA [4] = details: DSF 500 mg for 14 days; cited from earlier work
[5] = tested on: cell-associated unspliced (CA-US) HIV RNA; details: three consecutive days of DSF at all doses (500, 1000, 2000 mg); cited from earlier work
[6] = tested on: cell-associated unspliced (CA-US) HIV RNA; assay type: in vivo, HIV-1
clinical = details: human, in vivo
[7] = in humans; cited from earlier work
plasma HIV RNA [8] = assay type: in vivo, HIV-1
plasma HIV RNA [9] = details: following administration of vorinostat; cited from earlier work
CA-US HIV RNA = details: following administration of vorinostat; cited from earlier work
[10] = final PK model, estimate (RSE %)
[11] = model estimate at AUC0–72 of 2270 mg*h/L (500 mg dose group median)

CCN(CC)C(=S)SSC(=S)N(CC)CC [DSF, Disulfiram]
change in plasma HIV RNA (plasma HIV RNA [1]): increased, but only at day 31 and only in participants receiving the highest dose (2000 mg)
change in CA-DNA (cell-associated HIV DNA): no significant differences
time by which drug was completely eliminated ([2]; 3 consecutive daily doses): ≤ 72 h
BV (%) in CL/F (between-subject variability) [2, 10]: 36% and 36 (14) %
V (volume of distribution) [2, 10]: 1.29 (9.1) L
Vd ([2]; human, plasma, oral, V (volume of distribution), final PK model, estimate (RSE %)): 1.3 L
activation of latent HIV in vitro [3]: reactivated latent HIV
change in plasma HIV RNA (plasma HIV RNA [4]): transient but non-statistically significant increases
change in CA-US RNA [5]: statistically significant dose-dependent increases
AUC50 ([6]; exposure-response of AUC0–72 on CA-US HIV RNA): 1600 µg·h/L
Emax ([6]; increase in CA-US HIV RNA): 78%
Emax (fraction increase) ([6]; increase in CA-US HIV-1 RNA, estimate (RSE %)): 78 (13.6)
potential participants achieving >90% of Emax [6, 11]: over 70%
potential participants achieving less than a third of Emax [6, 11]: 15%
potential participants achieving >98% of Emax ([6]; model estimate at AUC0–72 of 3883 mg*h/L (lowest in 1000 mg dose group)): 95%
exposure-response relationship of AUC0–72 on CA-US RNA ([6]; negative binomial PK/PD models, all three baseline values): statistically significant exposure-response relationship
Km (clinical): 0.217 µg/mL
estimated half-life [7]: about 7 hours
median change in plasma HIV RNA (plasma HIV RNA [8]; by day 31, 2000 mg group): 1.17 copies/mL
median change in plasma HIV RNA (plasma HIV RNA [8]; during the treatment dosing period, 500 mg group): -0.22 copies/mL
exposure-response between AUC0–72 and plasma HIV RNA (plasma HIV RNA [8]; negative binomial regression models): a statistically significant exposure-response was not observed

CCN(CC)C(=S)S [M1, N,N-diethyldithiocarbamate]
Km (Michaelis-Menten constant, concentration at which elimination is half maximal) [2, 10]: 480 (6.2) ng/mL
V (volume of distribution) [2, 10]: 0.0906 (16.6) L
activation of latent HIV in vitro [3]: reactivated latent HIV

CCN(CC)C(=S)SC [M2, diethyldithiocarbamate-methyl ester]
Q (flow from central compartment to periphery) [2, 10]: 0.0776 (14.0)
V (volume of distribution) [2, 10]: 0.00404 (8.0) L
Vperiph (calculated peripheral volume) [2, 10]: 28.9 (17.3) L
activation of latent HIV in vitro [3]: but not M2 (DDTC-Me), reactivated latent HIV

CCN(CC)C(=O)[S+](C)[O-] (stereo not drawn) [M3, S-methyl-N,N-diethylthiolcarbamate sulfoxide]
V (volume of distribution) [2, 10]: 0.0647 (15.6) L

CCN(CC)C(=O)SC[C@H](NC(=O)CC[C@H](N)C(=O)O)C(=O)NCC(=O)O [M4, carbamathione]
Km (Michaelis-Menten constant, concentration at which elimination is half maximal) [2, 10]: 543 (4.3) ng/mL
V (volume of distribution) [2, 10]: 0.581 (10.3) L

O=C(CCCCCCC(=O)Nc1ccccc1)NO [vorinostat]
change in plasma HIV RNA (plasma HIV RNA [9]): a significant change in plasma HIV RNA was not observed
change in CA-US HIV RNA (CA-US HIV RNA): significant increases
